Patent publication US9504687B2, “Treating Bax(Δ)2-positive cancer with chemotherapies targeting caspase 8” (Mumetel, LLC, priority 2013, dated 2016)
Entries after “also recorded” stand apart in the source; their conditions may differ. Where two headings read alike, the source gives them in different places. Where a SMILES comes first, the peptide text is derived from it. The star is where a group is joined. Cbz = O=C(OCc1ccccc1)*

Legend:
[1] = tested on: caspase-8; assay: Immunoblotting for cleaved caspase-8 in chemodrug treated clone #10; type: cell-based, human; details: 5-FU (500 μM) or Adriamycin (4 μg/ml) 24 h
Description: (§1) FIG. 9. BaxΔ2 promotes apoptosis through activation of caspase-8. A, Cell death assay of HCT116 clone #10 and clone #28 cells treated with or without 5-FU (500 μM) or Adriamycin (Adr, 4 μg/ml) for 24 h in the presence of inhibitors (50 μM each) for caspase-3 (DEVD) SEQ ID NO: 4), caspase-8 (IETD) (SEQ ID NO: 5), caspase-1 (YVAD) (SEQ ID NO: 6), and caspase-9 (LEHD) (SEQ ID NO: 7) as indicated. ** P<0.01. inh., inhibitor. B, Caspase-3 assay of HCT116 clone #10 and #28 cells treated as described in (A). The activity of caspase-3 was measured using fluorogenic caspase-3 substrate DEVD-AFC (SEQ ID NO: 4) (50 μM) with a microplate spectrofluorometer. C, Immunoblotting analysis for the detection of cleaved casapase-8 in the chemodrug treated clone #10 and #28 cells with an anti-cleaved caspase-8 antibody.
(§2) Bax typically targets the mitochondria upon activation and results in the activation of the caspase-9 and caspase-3 cascade for cell death. To determine the underlying mechanism by which BaxΔ2 promoted cell death, HCT116 clones #10 and #28 were treated with Adriamycin or 5-FU in the presence of different caspase inhibitors. […] The caspase-3 activity was confirmed by the caspase-3 fluorometric assay (FIG. 9B). […]

[2] = tested on: HCT116 isogenic subline clone #10 (BaxΔ2-positive); type: cell-based, human; details: Table 5 screening
Description: Colon cancer cell line HCT116 was obtained from American Type Culture Collection. The cell line was tested and authenticated by Genetica (Cincinnati. Ohio) before the experiments. Both HCT116 and Bax^−/− mouse embryonic fibroblasts (MEFs) cells were cultured in DMEM supplemented with 10% FBS. To isolate single cell population from HCT116 cells, cells were treated with 500 μM Indomethacin for 72 h to enrich Bax G7 population. Single-cell suspension was plated onto 96-well plates without Indomethacin. Single clones were recovered, expanded, and validated by both genomic sequencing and RT-PCR analysis.
However, the heterogeneity of different cell lines often adds complexity to data interpretation. […] For the initial screening, we selected a panel of different classes of commonly used chemotherapeutic drugs.

[3] = tested on: Bid; assay: Immunoblotting analysis of cleaved Bid in clone #10; type: cell-based, human; details: BaxΔ2-positive clone #10 cells
Description: (§3) FIG. 10. The Bid-dependent mitochondrial death pathway is not essential for the onset of chemodrug-induced apoptosis in BaxΔ2-positive cells. A, Immunoblotting analysis of cleaved Bid in HCT116 clone #10 and #28 cells treated with or without 5-FU (500 μM) or Adriamycin ([…]) as indicated. The intensities of truncated Bid bands were quantitated relevant to the actin control and are presented as arbitrary numbers. B, Cell death assay of HCT116 clone #10 cells treated with 5-FU (500 μM) in the presence of a Bid specific inhibitor (BI-6C9; 10 μM) or Bid siRNA. C, Cell death assay of clone #10 cells treated with 5-FU (500 μM) in the presence of a caspase-9 inhibitor (LEHD (SEQ ID NO: 7); 50 μM) or transfected with a caspase-9 dominant negative (D/N) mutant construct. D, Representative images of JC-1 staining. Carbonyl cyanide 4-(trifluoromethoxy) phenylhydrazone (FCCP; 100 μM) was used as a positive control. JC-1 monomer green fluorescence as observed by excitation with 488 nm and emission with 529 nm (top panel). JC-1 aggregate red fluorescence as observed by excitation at 546 nm and emission at 590 nm (bottom panel).
(§4) Caspase-8 is one of the initiator caspases in the extrinsic death receptor pathway. […] We next determined if the Bid-dependent mitochondrial death pathway was required for BaxΔ2 to promote apoptosis. […]

[4] = tested on: HCT116-BP10 (BaxΔ2 positive) versus HCT116-BN28 (BaxΔ2 negative) sublines; assay: Cell death assay of HCT116 sublines treated with chemotherapeutic drugs for 36 hours; type: cell-based, human; details: Adriamycin (40 ug/ml) or 5-FU (500 ug/ml), compared with BaxΔ2 negative subline
Description: FIG. 8. […] Adr, Adriamycin; Etop, Etoposide; 5-FU, 5-fluorouracil; Contr, control.
BaxΔ2 positive (HCT116-BP10) and negative (HCT116-BN28) sublines were treated with Adriamycin (40 ug/ml) or 5-FU (500 ug/ml) for 36 hours in a regular cell culture medium. […] Both Adriamycin and Etoposide are in the same category as topoisomerase inhibitors; and both 5-FU and Cytoxan are in the same class of alkaloid drugs.

[5] = tested on: prostate cancer 104-R cells (G7/G7); details: previously shown; cited from earlier work
[6] = tested on: colon cancer LoVo cells (G7/G9); details: previously shown; cited from earlier work
[7] = tested on: BaxΔ2 protein; assay: Immunoblotting of BaxΔ2 protein after MG-132 treatment, clone #10; type: cell-based, human; details: clone #10 (HCT116-BP10); MG-132 10 μM for 8 h
Description: (§5) FIG. 7. Generation and characterization of the isogenic subline cells with the different Bax microsatellite status. A, Schematic diagram of generating the HCT116 sublines. Cells were treated with 500 μM Indomethacin for 72 h. A single cell suspension was plated into 96-well plates without Indomethacin. Bax microsatellite statuses (G8/G8, G8/G7, or G7/G7) of each sublines were determined by genomic sequencing as described in the methods. B, RT-PCR analysis of Bax alternative splicing and BaxΔ2 production. The cDNAs were generated from HCT116 clones #10 (G7/G7 genotype) and clone #28 (G8/G7 genotype) with a set of primers that cover Bax exon 1 through exon 6, or primers specific for BaxΔ2 as described in the methods. The PCR products of Baxα and BaxΔ2 plasmid DNA were used as controls. […] Total 1×10^4 cells were seeded onto 24-well plates and the cell numbers were counted every 24 h up to 96 h. […]
(§6) We then determined the expression of endogenous BaxΔ2 proteins in the HCT116 clones #10 and #28 subline cells using a specific anti-BaxΔ2 antibody. […] Of note, both clone #10 and clone #28 had no detectable parental Baxα proteins, as analyzed by immunoblotting using several anti-Baxα antibodies (FIG. 7C and data not shown).

[8] = tested on: BaxΔ2 protein; assay: Immunoblotting of BaxΔ2 protein after MG-132 treatment, clone #28; type: cell-based, human; details: clone #28 (HCT116-BN28); MG-132 10 μM for 8 h
Description: as §5, §6

[9] = tested on: HCT116 clone #10; assay: Cell death assay of clone #10 treated with 5-FU with Bid or caspase-9 inhibition; type: cell-based, human; details: clone #10 treated with 5-FU (500 μM); BI-6C9 10 μM; LEHD 50 μM
Description: as §3, with “(bottom panel). […]” for “(bottom panel).”
as §4

[10] = tested on: HCT116 clone #10; assay: Cell death assay with chemodrug in the presence of caspase inhibitors; type: cell-based, human; details: clone #10 treated with 5-FU (500 μM) or Adriamycin (4 μg/ml) 24 h; inhibitors 50 μM each
Description: as §1, §2

Compound | Caspase-8 activation (cleaved caspase-8 fragments 43 kDa and 18 kDa) [1] | Bid degradation (cleaved Bid) [3] | Sensitivity of BaxΔ2 positive clone #10 cells to treatment (cell death assay) [4] | Inhibition of chemodrug-induced apoptosis [10] | other results
O=c1[nH]cc(F)c(=O)[nH]1 [5-FU, 5-Fluorouracil] | activated | partially degraded | more sensitive | – | Sensitivity of BaxΔ2-positive clone #10 compared with BaxΔ2-negative clone #28 [2]: highly sensitive; also recorded: selectively sensitive
COc1cccc2c1C(=O)c1c(O)c3c(c(O)c1C2=O)C[C@@](O)(C(=O)CO)C[C@@H]3O[C@H]1C[C@H](N)[C@H](O)[C@H](C)O1 [Doxorubicin, doxorubicin] | activated | partially degraded | more sensitive | – | Sensitivity to treatment compared with cancer cells with wild type Bax [5]: more sensitive; Sensitivity to treatment compared with cancer cells with wild type Bax [6]: more sensitive; Sensitivity of BaxΔ2-positive clone #10 compared with BaxΔ2-negative clone #28 ([2]; listed as Adriamycin): more sensitive; also recorded: selectively sensitive
CC(C)C[C@@H](C=O)NC(=O)[C@H](CC(C)C)NC(=O)[C@H](CC(C)C)NC(=O)OCc1ccccc1 [MG-132] (Cbz-Leu-Leu-Leu-aldehyde) | – | – | – | – | Detection of BaxΔ2 proteins after treatment [7]: easily detected; Detection of BaxΔ2 proteins after treatment [8]: no detectable BaxΔ2 proteins
Bid siRNA: Bid siRNA (5′GGGCAAAAGC UUACAAAUAUU3′) (SEQ ID NO: 47) (GGGCAAAAGCUUACAAAUAUU; listed as RNA, chemistry not given here) | – | – | – | – | Effect on chemodrug-induced apoptosis [9]: did not significantly affect
Z-DEVD-FMK (N-Z, C-terminal fluoromethylketone) [caspase-3 inhibitor] | – | – | – | effectively inhibited | –
Z-IETD-FMK (N-Z, C-terminal fluoromethylketone) [caspase-8 inhibitor] | – | – | – | effectively inhibited | –
